Source: patent publication EP0183174A2, “Substituted phenoxy urea, processes for its preparation and herbicide containing it as active ingredient” (KUMIAI CHEMICAL INDUSTRY CO., LTD., priority 1984, dated 1986)

Legend:
sugar beet = experiment: Test Example 3: herbicidal test by upland soil treatment (phytotoxicity); type: in vivo; details: evaluated twenty days after application
From the text: (§1) Into each plastic pot of 600 cm^2, upland soil was filled, then seeds of barnyardgrass, crabgrass, green foxtail, redroot pigweed, rice flatsedge, rice, wheat, maize, soybean, cotton and sugar beet were sown, and they were covered with soil. A predetermined amount of the wettable powder prepared from the test compound in accordance with Formulation Example 3 and diluted with water, was uniformly applied to the surface of the soil at an application rate of 1000 liter/hectare by means of a small size spray. They were grown in a greenhouse, and twenty days after the application, the herbicidal effects and phytotoxicity were evaluated in accordance with the standards as identified in Table 5.

Paddy rice = experiment: Test Example 2: herbicidal test for selectivity between rice and barnyardgrass (phytotoxicity); type: in vivo; details: transplanted rice seedlings of 2-leaf stage, thirty days after application
Experimental: (§2) Into each 1/5000 are Wager pot, paddy soil was filled and puddled, then seeds of barnyardgrass were sown and grown until they reached 2-leaf stage. The barnyardgrass of 2-leaf stage was thinned out to adjust the number of barnyardgrass to fifteen per pot, and rice seedlings of 2-leaf stage were transplanted in the same pot. […] Thereafter, they were grown in a green house, and thirty days after the application, the herbicidal effects and phytotoxicity were evaluated in accordance with the standards as identified in Table 5.

rice = experiment: Test Example 3: herbicidal test by upland soil treatment (phytotoxicity); type: in vivo; design: key: 5: Withered; 4.5: Herbicidal effect (or phytotoxicity) in a range of 90 to 99%; 4: Herbicidal effect (or phytotoxicity) in a range of 80 to 89%; 3.5: Herbicidal effect (or phytotoxicity) in a range of 70 to 79%; 3: Herbicidal effect (or phytotoxicity) in a range of 60 to 69%; 2.5: Herbicidal effect (or phytotoxicity) in a range of 50 to 59%; 2: Herbicidal effect (or phytotoxicity) in a range of 40 to 49%; 1.5: Herbicidal effect (or phytotoxicity) in a range of 30 to 39%; 1: Herbicidal effect (or phytotoxicity) in a range of 20 to 29%; 0.5: Herbicidal effect (or phytotoxicity) in a range of 1 to 19%; 0: No herbicidal effect (or no phytotoxicity); details: evaluated twenty days after application
From the text: as §1

soybean = experiment: as above; type: in vivo; design: key: 5: Withered; 4.5: Herbicidal effect (or phytotoxicity) in a range of 90 to 99%; 4: Herbicidal effect (or phytotoxicity) in a range of 80 to 89%; 3.5: Herbicidal effect (or phytotoxicity) in a range of 70 to 79%; 3: Herbicidal effect (or phytotoxicity) in a range of 60 to 69%; 2.5: Herbicidal effect (or phytotoxicity) in a range of 50 to 59%; 2: Herbicidal effect (or phytotoxicity) in a range of 40 to 49%; 1.5: Herbicidal effect (or phytotoxicity) in a range of 30 to 39%; 1: Herbicidal effect (or phytotoxicity) in a range of 20 to 29%; 0.5: Herbicidal effect (or phytotoxicity) in a range of 1 to 19%; 0: No herbicidal effect (or no phytotoxicity); details: evaluated twenty days after application
From the text: as §1

wheat = experiment: as above; type: in vivo; design: key: 5: Withered; 4.5: Herbicidal effect (or phytotoxicity) in a range of 90 to 99%; 4: Herbicidal effect (or phytotoxicity) in a range of 80 to 89%; 3.5: Herbicidal effect (or phytotoxicity) in a range of 70 to 79%; 3: Herbicidal effect (or phytotoxicity) in a range of 60 to 69%; 2.5: Herbicidal effect (or phytotoxicity) in a range of 50 to 59%; 2: Herbicidal effect (or phytotoxicity) in a range of 40 to 49%; 1.5: Herbicidal effect (or phytotoxicity) in a range of 30 to 39%; 1: Herbicidal effect (or phytotoxicity) in a range of 20 to 29%; 0.5: Herbicidal effect (or phytotoxicity) in a range of 1 to 19%; 0: No herbicidal effect (or no phytotoxicity); details: evaluated twenty days after application
From the text: as §1

green foxtail = experiment: Test Example 3: herbicidal test by upland soil treatment; type: in vivo, Setaria viridis L.; design: key: 5: Withered; 4.5: Herbicidal effect (or phytotoxicity) in a range of 90 to 99%; 4: Herbicidal effect (or phytotoxicity) in a range of 80 to 89%; 3.5: Herbicidal effect (or phytotoxicity) in a range of 70 to 79%; 3: Herbicidal effect (or phytotoxicity) in a range of 60 to 69%; 2.5: Herbicidal effect (or phytotoxicity) in a range of 50 to 59%; 2: Herbicidal effect (or phytotoxicity) in a range of 40 to 49%; 1.5: Herbicidal effect (or phytotoxicity) in a range of 30 to 39%; 1: Herbicidal effect (or phytotoxicity) in a range of 20 to 29%; 0.5: Herbicidal effect (or phytotoxicity) in a range of 1 to 19%; 0: No herbicidal effect (or no phytotoxicity); details: evaluated twenty days after application
From the text: as §1

barnyardgrass [1] = experiment: Test Example 4: herbicidal test by upland foliage treatment; type: in vivo, Echinochloa crus-galli L.; design: key: 5: Withered; 4.5: Herbicidal effect (or phytotoxicity) in a range of 90 to 99%; 4: Herbicidal effect (or phytotoxicity) in a range of 80 to 89%; 3.5: Herbicidal effect (or phytotoxicity) in a range of 70 to 79%; 3: Herbicidal effect (or phytotoxicity) in a range of 60 to 69%; 2.5: Herbicidal effect (or phytotoxicity) in a range of 50 to 59%; 2: Herbicidal effect (or phytotoxicity) in a range of 40 to 49%; 1.5: Herbicidal effect (or phytotoxicity) in a range of 30 to 39%; 1: Herbicidal effect (or phytotoxicity) in a range of 20 to 29%; 0.5: Herbicidal effect (or phytotoxicity) in a range of 1 to 19%; 0: No herbicidal effect (or no phytotoxicity)
Experimental: Into each plastic pot of 120 cm^2, upland soil was filled, then seeds of barnyardgrass, crabgrass, redroot pigweed and rice flatsedge were sown, and they were grown in a greenhouse until barnyardgrass. reached 3-leaf stage. Each wettable powder prepared from the test compound in accordance with Formulation Example 3 was diluted with water to give the amount of the active ingredient corresponding to 4 kg/hectare, and the diluted solution was uniformly sprayed at an application rate of 1000 liter/hectare from the top of plants by means of a small size spray, when barnyardgrass was in the 3-leaf stage. They were grown in a greenhouse, and twenty days after the application, the herbicidal effects were evaluated in accordance with the standards as identified in Table 5.

barnyardgrass [2] = experiment: Test Example 2: herbicidal test for selectivity between rice and barnyardgrass (herbicidal effects); type: in vivo, Echinochloa crus-galli L.; details: barnyardgrass of 2-leaf stage, thirty days after application
Experimental: as §2

[3] = active ingredient 4 kg/hectare, foliage spray 1000 liter/hectare at 3-leaf stage of barnyardgrass, twenty days after application
[4] = upland foliage treatment, 4 kg/hectare active ingredient, sprayed at 1000 liter/hectare at barnyardgrass 3-leaf stage, evaluated twenty days after application

Row | Compound | Phytotoxicity Paddy rice (Paddy rice; Dose 0.25 kg/Ha) | Phytotoxicity Paddy rice (Paddy rice; Dose 0.5 kg/Ha) | Herbicidal effects Barnyard-grass (barnyardgrass [1]; [3]) | Herbicidal effects Barnyard grass (barnyardgrass [2]; Dose 0.25 kg/Ha) | Herbicidal effects Barnyard grass (barnyardgrass [2]; Dose 0.5 kg/Ha) | Herbicidal effects Barnyard-grass (barnyardgrass [1]; [4]) | further results
1 | CN(C)C(=O)NOc1cc(Cl)ccc1Cl [Compound No. 1, 3-(2,5-Dichlorophenoxy)-1,1-dimethyl urea] | 0 | 0 | 4 (Herbicidal effect (or phytotoxicity) in a range of 80 to 89%) | 5 | 5 | – | Phytotoxicity Sugar beet (sugar beet; Dose 1 kg/HA): 2 (Herbicidal effect (or phytotoxicity) in a range of 40 to 49%); Phytotoxicity Sugar beet (sugar beet; Dose 4 kg/HA): 3 (Herbicidal effect (or phytotoxicity) in a range of 60 to 69%); Phytotoxicity Paddy rice (Paddy rice; Dose 1 kg/Ha): 1 (Herbicidal effect (or phytotoxicity) in a range of 20 to 29%); Phytotoxicity Rice (rice; Dose 1 kg/HA): 0; Phytotoxicity Rice (rice; Dose 4 kg/HA): 0; Phytotoxicity Soybean (soybean; Dose 1 kg/HA): 0; Phytotoxicity Soybean (soybean; Dose 4 kg/HA): 0; Phytotoxicity Wheat (wheat; Dose 1 kg/HA): 0; Phytotoxicity Wheat (wheat; Dose 4 kg/HA): 0; Herbicidal effects Green foxtail (green foxtail; Dose 1 kg/HA): 5; Herbicidal effects Green foxtail (green foxtail; Dose 4 kg/HA): 5; Herbicidal effects Barnyard grass (barnyardgrass [2]; Dose 1 kg/Ha): 5
2 | CC(C)N(C)C(=O)NOc1cc(Cl)cc(Cl)c1 [Compound No. 186, 3-(3,5-Dichlorophenoxy)-1-isopropyl-1-methyl urea trichloroacetate] | 0 | 1 (Herbicidal effect (or phytotoxicity) in a range of 20 to 29%) | 5 | 5 | 5 | – | –
3 | CON(C)C(=O)NOc1cc(Cl)ccc1Cl [Compound No. 242, 3-(2,5-Dichlorophenoxy)-1-methoxy-1-methyl urea] | – | – | – | – | – | 4 (Herbicidal effect (or phytotoxicity) in a range of 80 to 89%) | –
4 | COCCNC(=O)NOc1cc(Cl)ccc1Cl [Compound No. 243] | – | – | – | – | – | 5 | –
